Results from patent US10385019B2, “Inhibitors of EGFR and methods of use thereof” (Dana-Farber Cancer Institute, Inc., priority 2015, dated 2019).
Read-outs that look alike come from different tables or passages of the source.

Columns and labels:
Assay in all cases: Ba/F3 cell proliferation model
Format in all cases: cell-based, murine
[1] = target: EGFR T790M/L858R Ba/F3 cell line (Homo sapiens, UniProt P00533, T790M/L858R, cells depend on it); conditions: for Activity (% inhibition): combined with cetuximab (% cetuximab, 1.0 μM drug concentration with 1.0 μg/mL cetuximab)
Outline: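 Murine Ba/F3 cells made IL-3-independent by retroviral EGFR L858R/T790M, selected in puromycin (2 μg/ml) and kept in RPMI 1640 with 10% FBS. Cells were exposed to serially diluted compound for 72 h, with growth read by MTS assay in six wells per point and ≥3 repeats. Sigmoidal dose-response non-linear regression gave the values.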

[2] = system: EGFR Parental Ba/F3 cell line; conditions: Mus musculus, BaF3; compound alone
Source text: (§1) The selectivity between wild-type EGFR and EGFR containing one or more mutations as described herein can also be measured using cellular proliferation assays where cell proliferation is dependent on kinase activity. For example, murine Ba/F3 cells transfected with a suitable version of wild-type EGFR (such as VIII; containing a WT EGFR kinase domain), or Ba/F3 cells transfected with L858R/T790M, Del/T790M/L718Q, L858R/T790M/L718Q, L858R/T790M/C797S, Del/T790M/C797S, L858R/T790M/I941R, or Exon 19 deletion/T790M can be used.
(§2) Cell lines are plated in media. The compounds of the present disclosure are then serially diluted and transferred to the cells. Cell viability is measured via a luminescent readout. Data is analyzed by non-linear regression curve-fitting.
(§3) The EGFR mutant L858R, Del E746_A750, L858R/T790M, DelE746_A750/T790M, L858R/T790M/C797S and Del/T790M/C797S Ba/F3 cells have been previously described (Zhou, W., Ercan, D., Chen, L., Yun, C. H., Li, D., Capelletti, M., Cortot, A. B., Chirieac, L., Iacob, R. E., Padera, R., et al. “Novel mutant-selective EGFR kinase inhibitors against EGFR T790M,” Nature 462, (2009), 1070-1074). All cell lines were maintained in RPMI 1640 (Cellgro; Mediatech Inc., Herndon, Calif.) supplemented with 10% FBS 100 units/mL penicillin, 100 units/mL streptomycin, and 2 mM glutamine. L858R cells were maintained in ACL-4 media (Invitrogen, Carlsbad, Calif.) supplemented with 5% FBS, 100 units/mL penicillin, 100 units/mL streptomycin, and 2 mM glutamine. The EGFR I941R mutation was introduced via site directed mutagenesis using the Quick Change Site-Directed Mutagenesis kit (Stratagene; La Jolla, Calif.) according to the manufacturer's instructions. All constructs were confirmed by DNA sequencing. The constructs were shuttled into the retroviral vector JP 1540 using the BD Creator™ System (BD Biosciences). Ba/F3 cells were infected with retrovirus and according to standard protocols, as described previously (Zhou et al, Nature 2009). Stable clones were obtained by selection in puromycin (2 μg/ml).
(§4) Growth and inhibition of growth was assessed by MTS assay and was performed according to previously established methods (Zhou et al., Nature 2009). The MTS assay is a colorimetric method for determining the number of viable cells that is based on the bioreduction of MTS by cells to a formazan product that is soluble in cell culture medium and can be detected spectrophotometrically. Ba/F3 cells of different EGFR genotypes were exposed to treatment for 72 hours and the number of cells used per experiment determined empirically and has been previously established (Zhou et al., Nature 2009). All experimental points were set up in six wells and all experiments were repeated at least three times. […] The curves were fitted using a non-linear regression model with a sigmoidal dose response.

[3] = target: Del/T790M Ba/F3 cell line (Homo sapiens, UniProt P00533, DEL746-750/T790M, cells depend on it)
Source text: as §1, §2, §3, §4

[4] = compound alone, read-out: L858R/T790M IC50
[5] = read-out: L858R/T790M Cetuximab IC50, in combination with Cetuximab
[6] = compound alone, read-out: Del/T790M IC50
[7] = read-out: Del/T790M Cetuximab IC50, in combination with Cetuximab

EGFR T790M/L858R Ba/F3 cell line, sequence (P00533 whole entry T790M/L858R): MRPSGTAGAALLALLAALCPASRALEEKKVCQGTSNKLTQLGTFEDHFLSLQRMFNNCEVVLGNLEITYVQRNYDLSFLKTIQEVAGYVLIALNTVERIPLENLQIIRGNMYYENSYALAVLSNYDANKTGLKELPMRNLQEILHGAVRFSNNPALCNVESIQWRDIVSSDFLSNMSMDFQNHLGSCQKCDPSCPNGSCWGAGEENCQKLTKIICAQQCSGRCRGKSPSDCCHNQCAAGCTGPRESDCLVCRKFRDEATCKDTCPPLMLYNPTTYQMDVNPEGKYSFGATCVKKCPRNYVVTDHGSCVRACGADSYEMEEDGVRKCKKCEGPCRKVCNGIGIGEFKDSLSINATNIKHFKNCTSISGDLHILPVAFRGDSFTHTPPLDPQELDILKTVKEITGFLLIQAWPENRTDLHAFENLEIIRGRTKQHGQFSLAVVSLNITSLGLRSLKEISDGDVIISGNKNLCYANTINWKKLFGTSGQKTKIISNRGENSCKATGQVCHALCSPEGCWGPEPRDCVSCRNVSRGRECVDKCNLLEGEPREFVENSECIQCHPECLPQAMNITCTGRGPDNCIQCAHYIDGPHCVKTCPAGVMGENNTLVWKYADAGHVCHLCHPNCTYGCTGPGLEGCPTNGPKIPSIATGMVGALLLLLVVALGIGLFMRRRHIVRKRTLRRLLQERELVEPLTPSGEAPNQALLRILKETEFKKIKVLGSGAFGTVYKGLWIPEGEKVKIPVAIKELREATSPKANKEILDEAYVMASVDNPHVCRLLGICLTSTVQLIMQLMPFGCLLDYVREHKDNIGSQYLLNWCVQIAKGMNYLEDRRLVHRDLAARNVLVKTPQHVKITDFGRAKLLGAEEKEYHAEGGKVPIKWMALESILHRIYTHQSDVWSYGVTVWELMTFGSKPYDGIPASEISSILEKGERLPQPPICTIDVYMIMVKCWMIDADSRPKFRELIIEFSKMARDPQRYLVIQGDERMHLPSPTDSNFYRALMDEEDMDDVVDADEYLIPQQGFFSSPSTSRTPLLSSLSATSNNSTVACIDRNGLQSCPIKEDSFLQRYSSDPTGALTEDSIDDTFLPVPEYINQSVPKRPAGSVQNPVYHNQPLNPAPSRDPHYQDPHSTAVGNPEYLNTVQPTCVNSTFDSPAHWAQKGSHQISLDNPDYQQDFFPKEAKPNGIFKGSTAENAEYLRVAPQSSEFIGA
Del/T790M Ba/F3 cell line, sequence (P00533 with tags, fused parts or gaps DEL746-750/T790M): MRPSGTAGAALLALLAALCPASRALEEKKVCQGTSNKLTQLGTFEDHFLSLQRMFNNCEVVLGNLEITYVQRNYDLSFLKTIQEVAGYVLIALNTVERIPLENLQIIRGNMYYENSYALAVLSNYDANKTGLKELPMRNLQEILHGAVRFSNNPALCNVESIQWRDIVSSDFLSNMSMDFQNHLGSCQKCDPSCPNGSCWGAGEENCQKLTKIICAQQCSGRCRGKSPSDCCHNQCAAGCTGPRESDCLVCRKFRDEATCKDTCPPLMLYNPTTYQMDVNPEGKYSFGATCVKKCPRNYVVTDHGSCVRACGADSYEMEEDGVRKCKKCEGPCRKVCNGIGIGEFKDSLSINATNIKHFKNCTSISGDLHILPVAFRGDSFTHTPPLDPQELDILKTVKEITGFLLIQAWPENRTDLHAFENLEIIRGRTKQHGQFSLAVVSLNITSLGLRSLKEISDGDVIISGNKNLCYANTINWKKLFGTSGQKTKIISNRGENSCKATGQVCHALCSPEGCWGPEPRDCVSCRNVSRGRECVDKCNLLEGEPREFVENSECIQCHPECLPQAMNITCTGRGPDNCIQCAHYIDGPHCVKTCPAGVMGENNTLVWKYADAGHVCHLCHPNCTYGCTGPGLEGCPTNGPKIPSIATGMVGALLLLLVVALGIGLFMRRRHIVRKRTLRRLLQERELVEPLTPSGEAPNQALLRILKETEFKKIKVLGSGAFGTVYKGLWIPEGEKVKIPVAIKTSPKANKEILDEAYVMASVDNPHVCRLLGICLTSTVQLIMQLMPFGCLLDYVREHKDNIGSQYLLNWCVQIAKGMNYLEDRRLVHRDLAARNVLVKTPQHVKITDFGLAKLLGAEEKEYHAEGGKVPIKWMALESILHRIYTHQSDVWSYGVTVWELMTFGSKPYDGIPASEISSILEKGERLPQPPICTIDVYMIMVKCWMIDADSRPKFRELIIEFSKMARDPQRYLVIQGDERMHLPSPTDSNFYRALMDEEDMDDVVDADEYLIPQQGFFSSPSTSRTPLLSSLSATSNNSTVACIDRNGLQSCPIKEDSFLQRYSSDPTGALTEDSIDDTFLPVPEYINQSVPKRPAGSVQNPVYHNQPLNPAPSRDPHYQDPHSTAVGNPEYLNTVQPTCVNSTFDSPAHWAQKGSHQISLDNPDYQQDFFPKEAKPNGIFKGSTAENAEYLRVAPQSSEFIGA

GI50 [1, 4] [µM] | GI50 [1, 5] [µM] | GI50 [3, 6] [µM] | GI50 [3, 7] [µM] | Structure (SMILES) | Activity (% inhibition) [1] | IC50 [2] [µM]
1 to 10 | < 0.5 | > 10 | > 10 | O=C(Nc1nccs1)[C@H](c1ccccc1)N1Cc2ccc(-c3ccc4[nH]ccc4c3)cc2C1=O [Compound I-112, (S)-2-(6-(1H-indol-5-yl)-1-oxoisoindolin-2-yl)-2-phenyl-N-(thiazol-2-yl)acetamide] | D (a % inhibition of between about 0% to about 25%) | > 10
1 to 10 | < 0.5 | 1 to 10 | 1 to 10 | O=C(Nc1nccs1)[C@@H](c1ccccc1)N1Cc2ccc(-c3ccc(N4CCNCC4)cc3F)cc2C1=O [Compound I-120, (R)-2-(6-(2-fluoro-4-(piperazin-1-yl)phenyl)-1-oxoisoindolin-2-yl)-2-phenyl-N-(thiazol-2-yl)acetamide] | D (a % inhibition of between about 0% to about 25%) | 1 to 10
1 to 10 | < 0.5 | 1 to 10 | 1 to 10 | CN(C)CCNC(=O)c1ccc(-c2ccc3c(c2)C(=O)N([C@@H](C(=O)Nc2nccs2)c2ccccc2)C3)cc1 [Compound I-81, (R)-N-(2-(dimethylamino)ethyl)-4-(3-oxo-2-(2-oxo-1-phenyl-2-(thiazol-2-ylamino)ethyl)isoindolin-5-yl)benzamide] | D (a % inhibition of between about 0% to about 25%) | 1 to 10
1 to 10 | < 0.5 | > 10 | > 10 | O=C(Nc1nccs1)C(c1cccc(F)c1)N1Cc2ccc(-c3ccc4[nH]ccc4c3)cc2C1=O (centres unmarked) [Compound I-122, 2-(6-(1H-indol-5-yl)-1-oxoisoindolin-2-yl)-2-(3-fluorophenyl)-N-(thiazol-2-yl)acetamide] | D (a % inhibition of between about 0% to about 25%) | 1 to 10
1 to 10 | < 0.5 | 1 to 10 | 1 to 10 | O=C(Nc1nccs1)[C@@H](c1ccccc1)N1Cc2ccc(-c3ccc(CN4CCNCC4)cc3)cc2C1=O [Compound I-121, (R)-2-(1-oxo-6-(4-(piperazin-1-ylmethyl)phenyl)isoindolin-2-yl)-2-phenyl-N-(thiazol-2-yl)acetamide] | D (a % inhibition of between about 0% to about 25%) | 1 to 10
 |  |  |  | O=C(Nc1ccncc1)[C@@H](c1ccccc1)N1Cc2ccccc2C1=O [Compound I-8, (R)-2-(1-oxoisoindolin-2-yl)-2-phenyl-N-(pyridin-4-yl) acetamide] | A (a % inhibition of about 75%) | 
 |  |  |  | O=C(Nc1nccs1)[C@@H](c1ccccc1)N1Cc2ccc(-c3cncnc3)cc2C1=O [Compound I-62, (R)-2-(1-oxo-6-(pyrimidin-5-yl)isoindolin-2-yl)-2-phenyl-N-(thiazol-2-yl)acetamide] | B (a % inhibition of between about 50% to about 75%) | 
 |  |  |  | O=C(Nc1nccs1)[C@@H](c1ccccc1)N1Cc2ccc(-c3cccs3)cc2C1=O [Compound I-46, (R)-2-(1-oxo-6-(thiophen-2-yl)isoindolin-2-yl)-2-phenyl-N-(thiazol-2-yl)acetamide] | B (a % inhibition of between about 50% to about 75%) | 
 |  |  |  | O=C(Nc1ncco1)[C@@H](c1ccccc1)N1Cc2ccc(-c3ccc4[nH]ccc4c3)cc2C1=O [Compound I-129, (R)-2-(6-(1H-indol-5-yl)-1-oxoisoindolin-2-yl)-N-(oxazol-2-yl)-2-phenylacetamide] | B (a % inhibition of between about 50% to about 75%) | 
 |  |  |  | O=C(Nc1cccnc1)[C@@H](c1ccccc1)N1Cc2ccccc2C1=O [Compound I-7, (R)-2-(1-oxoisoindolin-2-yl)-2-phenyl-N-(pyridin-3-yl) acetamide] | A (a % inhibition of about 75%) | 
 |  |  |  | Cc1cccc(C)c1NC(=O)[C@@H](c1ccccc1)N1Cc2ccccc2C1=O [Compound I-54, (R)-N-(2,6-dimethylphenyl)-2-(1-oxoisoindolin-2-yl)-2-phenylacetamide] | A (a % inhibition of about 75%) | 
 |  |  |  | CN1CCN(C(=O)c2csc(NC(=O)[C@@H](c3ccccc3)N3Cc4ccccc4C3=O)n2)CC1 [Compound I-25, (R)-N-(4-(4-methylpiperazine-1-carbonyl)thiazol-2-yl)-2-(1-oxoisoindolin-2-yl)-2-phenylacetamide] | A (a % inhibition of about 75%) | 
 |  |  |  | O=C(Nc1nc2cccnc2s1)[C@@H](c1ccccc1)N1Cc2ccccc2C1=O [Compound I-32, (R)-2-(1-oxoisoindolin-2-yl)-2-phenyl-N-(thiazolo [5,4-b]pyridin-2-yl)acetamide] | A (a % inhibition of about 75%) | 
 |  |  |  | O=C(Nc1nccs1)[C@@H](c1ccccc1)N1Cc2cc(-c3ccccc3F)ccc2C1=O [Compound I-101, (R)-2-(5-(2-fluorophenyl)-1-oxoisoindolin-2-yl)-2-phenyl-N-(thiazol-2-yl)acetamide] | B (a % inhibition of between about 50% to about 75%) | 
 |  |  |  | O=C(Nc1nncs1)[C@H](c1ccccc1)N1Cc2ccccc2C1=O [Compound I-42, (S)-2-(1-oxoisoindolin-2-yl)-2-phenyl-N-(1,3,4-thiadiazol-2-yl)acetamide] | A (a % inhibition of about 75%) | 
 |  |  |  | O=C(Nc1ncc(Br)s1)[C@H](Cc1ccccc1)N1Cc2ccccc2C1=O [Compound I-49, (S)-N-(5-bromothiazol-2-yl)-2-(1-oxoisoindolin-2-yl)-3-phenylpropanamide] | A (a % inhibition of about 75%) | 
 |  |  |  | O=C(Nc1cc(F)ccc1F)[C@@H](c1ccccc1)N1Cc2ccccc2C1=O [Compound I-53, (R)-N-(2,5-difluorophenyl)-2-(1-oxoisoindolin-2-yl)-2-phenylacetamide] | A (a % inhibition of about 75%) | 
 |  |  |  | O=C(Nc1ccccn1)[C@@H](c1ccccc1)N1Cc2ccccc2C1=O [Compound I-31, (R)-2-(1-oxoisoindolin-2-yl)-2-phenyl-N-(pyridin-2-yl) acetamide] | A (a % inhibition of about 75%) | 
 |  |  |  | O=C(Nc1nccs1)C(c1cccc(F)c1)N1Cc2ccc(-c3ccc(CN4CCNCC4)cc3)cc2C1=O (centres unmarked) [Compound I-125, 2-(3-fluorophenyl)-2-(1-oxo-6-(4-(piperazin-1-ylmethyl)phenyl)isoindolin-2-yl)-N-(thiazol-2-yl)acetamide] | D (a % inhibition of between about 0% to about 25%) | 
 |  |  |  | O=C(Nc1ncc(CCCN2CCOCC2)s1)[C@@H](c1ccccc1)N1Cc2ccccc2C1=O [Compound I-44, (R)-N-(5-(3-morpholinopropyl)thiazol-2-yl)-2-(1-oxoisoindolin-2-yl)-2-phenylacetamide] | A (a % inhibition of about 75%) | 
 |  |  |  | O=C(Nc1ncnc2[nH]ncc12)[C@@H](c1ccccc1)N1Cc2ccccc2C1=O [Compound I-33, (R)-2-(1-oxoisoindolin-2-yl)-2-phenyl-N-(1H-pyrazolo[3,4-d]pyrimidin-4-yl)acetamide] | A (a % inhibition of about 75%) | 
 |  |  |  | O=C(NCCN1CCOCC1)c1cccc(-c2ccc3c(c2)C(=O)N([C@@H](C(=O)Nc2nccs2)c2ccccc2)C3)c1 [Compound I-90, (R)-N-(2-morpholinoethyl)-3-(3-oxo-2-(2-oxo-1-phenyl-2-(thiazol-2-ylamino)ethyl)isoindolin-5-yl)benzamide] | C (a % inhibition of between about 25% to about 50%) | 
